The values that follow come from patent US20260274833A1 (NiKang Therapeutics, Inc., priority 2022, published 2026).

Where only a bound is given, the exact number is not on record here.

The target of the assay is T1, CDK2 (Homo sapiens, UniProt P24941).
T1 construct: endogenous in cells; host or cells: OVCAR3 cells
As to the kind of experiment: Phospho-RB measurement in OVCAR3 cells (HTRF phospho-RB cellular kit). The settings on record: inhibition of RB phosphorylation at S807/811 (HTRF, TR-FRET ratio 665/620), 24 h compound treatment, 0.3 to 10,000 nM. The assay is classed as cell-based. Summed up:
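IC50 came from a four-parameter logistic fit of the DMSO-normalized TR-FRET ratio (665/620 nm). That ratio reflects RB phosphorylation at S807/811, read with an HTRF antibody pair 4 h after adding lysate at room temperature.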
(In general: Time-resolved FRET reads energy transfer from a long-lived donor to a nearby acceptor.)

On to `CCN(C)S(=O)(=O)Nc1cccc(-c2nc(C(C)(C)C)sc2-c2ccnc(NC3CC4(C3)CS(=O)(=O)C4)n2)c1F` [Example 194, N-(3-(2-(tert-butyl)-5-(2-((2,2-dioxido-2-thiaspiro[3.3]heptan-6-yl)amino)-pyrimidin-4-yl)thiazol-4-yl)-2-fluoro-phenyl)-N-methyl-N-ethylamine-sulfonamide], for which the IC50 (in general, the point on the concentration scale where inhibition reaches its midpoint) was 1850 nM.

Consider `C[C@H]1c2ccccc2CN1S(=O)(=O)Nc1cccc(-c2nc(C(C)(C)C)sc2-c2ccnc(NC3CCN(S(C)(=O)=O)CC3)n2)c1F` [Example 131, (S)-N-(3-(2-(tert-butyl)-5-(2-((1-(methyl-sulfonyl)piperidin-4-yl)amino)pyrimidin-4-yl)thiazol-4-yl)-2-fluoro-phenyl)-1-methyliso-indoline-2-sulfonamide], for which the IC50 turned out to be 160 nM.

For the compound `CC(C)(C)c1nc(-c2cccc(NS(=O)(=O)N3Cc4cccnc4C3)c2F)c(-c2ccnc(NC3CCN(S(=O)(=O)N4CCNCC4)CC3)n2)s1` [Example 132, N-(3-(2-(tert-butyl)-5-(2-((1-(piperazin-1-ylsulfonyl)piperidin-4-yl)amino)-pyrimidin-4-yl)thiazol-4-yl)-2-fluoro-phenyl)-5,7-dihydro-6H-pyrrolo[3,4-b]-pyridine-6-sulfonamide], the IC50 was found to be 310 nM.

Take `CS(=O)(=O)[C@H]1CC[C@H](Nc2nccc(-c3sc(C45CC(C(F)(F)F)(C4)C5)nc3-c3cccc(NS(=O)(=O)N4Cc5ccccc5C4)c3F)n2)CC1` [Example 57, N-(2-fluoro-3-(5-(2-(((1r,4r)-4-(methylsulfonyl)cyclohexyl)amino)-pyrimidin-4-yl)-2-(3-(trifluoromethyl)-bicyclo[1.1.1]-pentan-1-yl)thiazol-4-yl)phenyl) isoindoline-2-sulfonamide]: the 50% inhibitory concentration (IC50) was 494 nM.

With `CC1CCCCN1S(=O)(=O)Nc1cccc(-c2nc(C(C)(C)C)sc2-c2ccnc(NC3CCN(S(C)(=O)=O)CC3)n2)c1F` (stereo not shown) [Example 66, N-(3-(2-(tert-butyl)-5-(2-((1-(methylsulfonyl)-piperidin-4-yl)amino)-pyrimidin-4-yl)thiazol-4-yl)-2-fluoro-phenyl)-2-methylpiperidine-1-sulfonamide], the IC50 is above 5000 nM.

For the compound `O=S1(=O)CC2(CC(Nc3nccc(-c4sc(C56CC(C(F)(F)F)(C5)C6)nc4-c4cccc(NS(=O)(=O)N5CCc6ccc(C(F)(F)F)cc65)c4F)n3)C2)C1` [Example 279, N-(3~(5-(2-((2,2-dioxido-2-thiaspiro-[3.3]heptan-6-yl)amino)pyrimidin-4-yl)-2-(3-(trifluoromethyl)bicyclo[1.1.1]-pentan-1-yl)thiazol-4-yl)-2-fluoro-phenyl)-6-(trifluoromethyl) indoline-1-sulfonamide], the IC50 stood at 409 nM.

Consider `CN(C)c1cccc2c1CN(S(=O)(=O)Nc1cccc(-c3nc(C(C)(C)C)sc3-c3ccnc(NC4CC5(C4)CS(=O)(=O)C5)n3)c1F)C2` [Example 206, N-(3-(2-(tert-butyl)-S-(2-((2,2-dioxido-2-thiaspiro[3.3]heptan-6-yl)amino)-pyrimidin-4-yl)thiazol-4-yl)-2-fluoro-phenyl)-4-(dimethylamino) isoindoline-2-sulfonamide], for which the IC50 worked out at 619 nM.

With `CC(C)(C)c1nc(-c2cccc(NS(=O)(=O)N3Cc4ccncc4C3)c2F)c(-c2ccnc(N[C@H]3[C@@H]4CS(=O)(=O)C[C@@H]43)n2)s1` [Example 222, N-(3-(2-(tert-butyl)-5-(2-(((1R,5S,6r)-3,3-dioxido-3-thiabicyclo[3.1.0]hexan-6-yl)amino)pyrimidin-4-yl)thiazol-4-yl)-2-fluorophenyl)-1,3-dihydro-2H-pyrrolo[3,4-c]-pyridine-2-sulfonamide], the half-inhibitory concentration (IC50) amounted to 152 nM.

Turning to `CC(C)(C)c1nc(-c2cccc(NS(=O)(=O)N3Cc4ccc(CO)cc4C3)c2F)c(-c2ccnc(NC3CC4(C3)CS(=O)(=O)C4)n2)s1` [Example 231, N-(3-(2-(tert-butyl)-5-(2-((2,2-dioxido-2-thiaspiro[3.3]heptan-6-yl)amino)-pyrimidin-4-yl)thiazol-4-yl)-2-fluorophenyl)-5-(hydroxymethyl)-isoindoline-2-sulfonamide], the half-maximal inhibitory concentration (IC50) is 77.4 nM.

For `CC(C)(C)c1nc(-c2cccc(NS(=O)(=O)N3Cc4cccc(OCCO)c4C3)c2F)c(-c2ccnc(NC3CCN(S(C)(=O)=O)CC3)n2)s1` [Example 237, N-(3-(2-(tert-butyl)-5-(2-((1-(methylsulfonyl)-piperidin-4-yl)amino)-pyrimidin-4-yl)thiazol-4-yl)-2-fluoro-phenyl)-4-(2-hydroxyethoxy)-isoindoline-2-sulfonamide], the IC50 was 297 nM.

In the case of `CN(C)CCN(C)S(=O)(=O)N1CCC(Nc2nccc(-c3sc(C(C)(C)C)nc3-c3cccc(NS(=O)(=O)N4CCNc5ccccc5C4)c3F)n2)CC1` [Example 139, N-(3-(2-(tert-butyl)-5-(2-((1-(N-(2-(dimethyl-amino)ethyl)-N-methyl-sulfamoyl)piperidin-4-yl)amino)-pyrimidin-4-yl)thiazol-4-yl)-2-fluoro-phenyl)-1,2,3,5-tetrahydro-4H-benzo[e][1,4] diazepine-4-sulfonamide], the IC50 was determined as 291 nM.

Consider `CN(C)Cc1cccc2c1CCN2S(=O)(=O)Nc1cccc(-c2nc(C(C)(C)C)sc2-c2ccnc(NC3CCN(S(C)(=O)=O)CC3)n2)c1F` [Example 133, N-(3-(2-(tert-butyl)-5-(2-((1-(methylsulfonyl)-piperidin-4-yl)amino)-pyrimidin-4-yl)thiazol-4-yl)-2-fluoro-phenyl)-4-((dimethylamino)methyl)-indoline-1-sulfonamide], for which the IC50 was 331 nM.

As for `CC(C)(C)c1nc(-c2cccc(NS(=O)(=O)N3CCOc4ccccc43)c2F)c(-c2ccnc(NC3CCN(S(C)(=O)=O)CC3)n2)s1` [Example 98, N-(3-(2-(tert-butyl)-5-(2-((1-(methylsulfonyl)piperidin-4-yl)amino)-pyrimidin-4-yl)thiazol-4-yl)-2-fluoro-phenyl)-2,3-dihydro-4H-benzo[b][1,4]-oxazine-4-sulfonamide], the IC50 was 511 nM.

With `CC(C)(C)c1nc(-c2cccc(NS(=O)(=O)N3CCNc4ccccc43)c2F)c(-c2ccnc(NC3CCN(S(=O)(=O)N4CCNCC4)CC3)n2)s1` [Example 129, N-(3-(2-(tert-butyl)-5-(2-((1-(piperazin-1-ylsulfonyl)piperidin-4-yl)amino)-pyrimidin-4-yl)thiazol-4-yl)-2-fluoro-phenyl)-3,4-dihydroquinoxaline-1(2H)-sulfonamide], the half-maximal inhibitory concentration (IC50) stood at 328 nM.

`COc1cccc2c1CN(S(=O)(=O)Nc1cccc(-c3nc(C(C)(C)C)sc3-c3ccnc(NC4CCN(S(=O)(=O)N5CCNCC5)CC4)n3)c1F)C2` [Example 143, N-(3-(2-(tert-butyl)-S-(2-((1-(piperazin-1-ylsulfonyl)piperidin-4-yl)amino)-pyrimidin-4-yl)thiazol-4-yl)-2-fluoro-phenyl)-4-methoxy-isoindoline-2-sulfonamide]: the IC50 is 136 nM.

As for `CC(C)(C)c1nc(-c2cccc(NS(=O)(=O)N3Cc4ccc(F)cc4C3)c2F)c(-c2ccnc(NC3CCN(S(C)(=O)=O)CC3)n2)s1` [Example 70, N-(3-(2-(tert-butyl)-5-(2-((1-(methylsulfonyl)-piperidin-4-yl)amino)-pyrimidin-4-yl)thiazol-4-yl)-2-fluoro-phenyl)-5-fluoroisoindoline-2-sulfonamide], the concentration for half-maximal inhibition (IC50) stood at 94 nM.

As to `CC(C)(C)c1nc(-c2cccc(NS(=O)(=O)N3Cc4cccc(-c5cccc(C#N)c5)c4C3)c2F)c(-c2ccnc(NC3CCN(S(C)(=O)=O)CC3)n2)s1` [Example 227, N-(3-(2-(tert-butyl)-5-(2-((1-(methylsulfonyl)-piperidin-4-yl)amino)-pyrimidin-4-yl)thiazol-4-yl)-2-fluoro-phenyl)-4-(3-cyanophenyl)-isoindoline-2-sulfonamide], the IC50 turned out to be 517 nM.

In the case of `O=S1(=O)CC2(CC(Nc3nccc(-c4sc(C56CC(C5)C6)nc4-c4cccc(NS(=O)(=O)N5CCc6ccc(Cl)cc65)c4F)n3)C2)C1` [Example 21, N-(3-(2-(bicyclo [1.1.1]pentan-1-yl)-5-(2-((2,2-dioxido-2-thiaspiro[3.3]heptan-6-yl)amino)-pyrimidin-4-yl)thiazol-4-yl)-2-fluorophenyl)-6-chloroindoline-1-sulfonamide], the 50% inhibitory concentration (IC50) was 55.7 nM.

Consider `O=S1(=O)CC2(CC(Nc3nccc(-c4sc(C56CC(C5)C6)nc4-c4cccc(NS(=O)(=O)N5CCc6ccc(OC(F)F)cc65)c4F)n3)C2)C1` [Example 48, N-(3-(2-(bicyclo [1.1.1]pentan-1-yl)-5-(2-((2,2-dioxido-2-thiaspiro[3.3]heptan-6-yl)amino)-pyrimidin-4-yl)thiazol-4-yl)-2-fluorophenyl)-6-(difluoromethoxy)-indoline-1-sulfonamide], for which the IC50 amounted to 139 nM.

With `CC(O)c1cccc2c1CCN2S(=O)(=O)Nc1cccc(-c2nc(C(C)(C)C)sc2-c2ccnc(NC3CC4(C3)CS(=O)(=O)C4)n2)c1F` (stereo not shown) [Example 229, N-(3-(2-(tert-butyl)-5-(2-((2,2-dioxido-2-thiaspiro[3.3]heptan-6-yl)amino)-pyrimidin-4-yl)thiazol-4-yl)-2-fluoro-phenyl)-4-(1-hydroxyethyl)-indoline-1-sulfonamide], the IC50 stood at 145 nM.

For `CC(C)(C)c1nc(-c2cccc(NS(=O)(=O)N3CCc4ccc(C#N)cc43)c2F)c(-c2ccnc(Nc3ccc(N4CCNCC4)cc3)n2)s1` [Example 225, N-(3-(2-(tert-butyl)-5-(2-((4-(piperazin-1-yl)phenyl)amino)pyrimidin-4-yl)-thiazol-4-yl)-2-fluorophenyl)-6-cyano-indoline-1-sulfonamide], the IC50 worked out at 456 nM.

For the compound `O=S1(=O)CC2(CC(Nc3nccc(-c4sc(C56CC(C5)C6)nc4-c4cccc(NS(=O)(=O)N5CCCc6ccccc6C5)c4F)n3)C2)C1` [Example 50, N-(3-(2-(bicyclo [1.1.1]pentan-1-yl)-5-(2-((2,2-dioxido-2-thiaspiro[3.3]heptan-6-yl)amino)-pyrimidin-4-yl)thiazol-4-yl)-2-fluorophenyl)-1,3,4,5-tetrahydro-2H-benzo[c]azepine-2-sulfonamide], the IC50 is 228 nM.
